# Data as given in patent publication US7186559B2, “Apparatus and method for electroporation of biological samples” (Maxcyte, Inc., priority 2001, dated 2007).
# Tests used:
# CLL-B cells = experiment: Caspase inhibitor effect on human CD40L transfection of CLL-B cells; format: cell-based; conditions: 100 μm inhibitor in culture medium, 24 hour post transfection
# Protocol: Caspase inhibitor effect on human CD40L transfection of CLL-B cells was investigated. CLL-B cells (1.4×10^8 cells/mL) were electroporated by four 400 μs pulses at indicated electric fields in the present of DNA plasmid (200 μg/mL) coding for hCD40L. Following a 20 minute incubation at 37° C., cells were cultured in medium either with (+I) or without (−I) caspase inhibitor (Boc-Asp-FMK, 100 μm). hCD40L, expression was analyzed 24 hour post transfection by flow cytometry with antibodies against hCD40L conjugate-labeled with Cychrome.
# Human platelets [1] = experiment: Loading of platelets with fluorescent marker by flow electroporation; format: cell-based
# Protocol: Efficacy is expressed as the percentage of cells that took up fluorescent markers (calcein or albumin+fluorescein). “Activity” was determined by measuring biologic functions, such as secretion or aggregation (for MaxCyte's application, any detectable level will probably suffice). “Survival” is the circulating half-life in an animal model. FIGS. 23A and 23B show scatter plots from a flow cytometer. Control (FIG. 23A) was incubated in a dilute solution of the fluorescent dye, calcein, for approximately 1 hour. The test sample (FIG. 23B) was suspended in the same dye solution, but was run through the electroporation device. Similar results were obtained using fluoresceinated albumin.
# platelets = experiment: Collagen stimulation of calcein-loaded platelets; format: cell-based; conditions: platelets electroporated with calcein, collagen stimulus
# Protocol: Platelets were treated in accordance with the present invention in the presence of a marker dye, calcein, then stimulated with increasing doses of collagen, a physiologic stimulant for platelets. […] FIGS. 24A and 24B show platelets that had been washed but otherwise not treated (Untreated[N]}), platelets that were incubated with the fluorescent marker calcein (calcein control) and platelets electroporated with calcein (electroporated) were subsequently stimulated with the physiologic stimulus, collagen.
# Human platelets [2] = experiment: Activity (secretion or aggregation) of loaded platelets; format: cell-based
# Protocol: Efficacy is expressed as the percentage of cells that took up fluorescent markers (calcein or albumin+fluorescein). “Activity” was determined by measuring biologic functions, such as secretion or aggregation (for MaxCyte's application, any detectable level will probably suffice). “Survival” is the circulating half-life in an animal model.
# [3] = Organ distribution of calcein-loaded platelets; format: in vivo, rabbit; conditions: rabbits, organs harvested within 1 half-life
# From the text: In another series of studies, platelets loaded with calcein were infused into the rabbits and major organs harvested within 1 half-life.
# hemoglobin = hemoglobin (Homo sapiens, UniProt P68871); conditions: cited from earlier work
# Chain of hemoglobin (P68871 2-147 limits assumed): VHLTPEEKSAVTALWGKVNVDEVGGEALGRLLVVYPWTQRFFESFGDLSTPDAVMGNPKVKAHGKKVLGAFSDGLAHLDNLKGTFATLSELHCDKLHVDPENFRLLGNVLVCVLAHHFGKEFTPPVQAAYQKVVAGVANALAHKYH
# Chain of hemoglobin (P69905 2-142 partner limits assumed): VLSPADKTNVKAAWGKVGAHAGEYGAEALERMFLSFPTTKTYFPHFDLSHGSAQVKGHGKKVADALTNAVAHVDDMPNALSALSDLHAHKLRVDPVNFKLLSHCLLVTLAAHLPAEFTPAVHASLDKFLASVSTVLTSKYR
# resting Lymphocytes = experiment: Electroporation (transfection) of resting lymphocytes; format: cell-based, human; conditions: Static
# Protocol: Primary lymphocytes were suspended in B&K buffer (125 mM KCl, 15 mM NaCl, 1.2 mM MgCl2, 3 mM glucose, 25 mM Hepes, pH 7.4) cell concentration was set from 1×10^7 cells/mL to 6×10^8 cells/mL together with DNA plasmid from 50 μg/mL to 1 mg/mL. DNA concentration was 50 ug/mL–1000 ug/mL. Electroporation was performed at 2.3 kV/cm, 400 μs, 4 pulses for small volume experiments (15 μl) or 2.2 kV/cm, 1.6 ms, 1 pulse for large volume experiments (0.5 ml–2 ml) was performed under static conditions at room temperature. […] Cells were cultured in culture medium for various periods (up to 72 hours) and the transfection efficiency was analyzed.
# Seven transgenes (Ds-Red, eGFP, βGal, hEndostatin, HEPO, hIFNα, hIL-2) were tested in these experiments. […] When pCMV-Ds-Red or pCMV-EGFP was used, the percentage of the fluorescent cells was counted, by FACS or by manual counting under phase contrast and fluorescence microscope, as the transfection efficiency. […] When pCMV-Endostatin was used, the Endostatin concentration in the supernatant was analyzed by ELISA kit from Cytimmune Sciences, Inc. (College Park, Md.). For pCMV-EPO electroporation, the erythropoietin concentration in the supernatant was analyzed by R&D ELISA kit (Minneapolis, Minn.). […]
compound,measurement,setting,value
CC(C)(C)OC(=O)NC(CC(=O)O)C(=O)CF (stereo not drawn) [Boc-Asp-FMK],hCD40L expression level,CLL-B cells,improves
same,hCD40L expression: percentage of expressed cells,CLL-B cells,improves
"O=C(O)CN(CC(=O)O)Cc1cc2c(cc1O)Oc1cc(O)c(CN(CC(=O)O)CC(=O)O)cc1C21OC(=O)c2ccccc21 [CALCEIN, calcein]",Efficacy (% of cells with marker),Human platelets [1],80+ % of cells with marker
same,collagen-stimulated Calcein release,platelets,did not release the dye
same,Activity (% of control),Human platelets [2],40–60 % of control
same,organ distribution of loaded platelets,[3],found in multiple organs
"O=P(O)(O)O[C@H]1[C@H](OP(=O)(O)O)[C@@H](OP(=O)(O)O)[C@H](OP(=O)(O)O)[C@@H](OP(=O)(O)O)[C@H]1OP(=O)(O)O [IHP, inositol hexaphosphate]",affinity to hemoglobin relative to DPG,hemoglobin; higher than DPG,1000 fold
same,P50 of hemoglobin,"hemoglobin; pH 7.4, 37° C.",≤ 96.4 mm Hg
βGal,Efficiency (% of + cells),resting Lymphocytes,15%
same,Viability,resting Lymphocytes,40%
